The values that follow come from US20140100248A1, “Novel Heterocyclic Compounds as Modulators of Sphingolipid Signaling and Uses Thereof” (UNIVERSITÄT BERN, priority 2011, published 2014).

In assay [1] the test system is colon cancer cell line HCT-116. The experiment in a line: colony formation assay. The class given is cell-based, human. Conditions: HCT-116, 10 days of treatment. On the procedure:
Cells were seeded at a density of 700 cells per 60 mm-diameter dish in growth medium. After 24 h, cells were treated with either vehicle (Co) or the indicated concentrations (in μM) of FTY720, myriocin (myrio), ST-968, and ST-1071, and further cultured for 10 days at 37° C. Thereafter, colonies were stained and quantified as described in the Methods Section. […] Rat renal mesangial cells were isolated, characterized, and cultured as previously described (Pfeilschifter et al., 1984). For the experiments performed in this study, cells between passages 8-30 were used. The human endothelial cell line EA.hy 926 was cultured in RPMI medium containing 10% (v/v) fetal bovine serum, 10 mM Hepes, pH 7.4, 100 units/ml penicillin, and 100 μg/ml streptomycin. HCT-116 colon carcinoma cells were cultured in McCoy medium including 10% (v/v) fetal bovine serum, 100 units/ml penicillin, and 100 μg/ml streptomycin. Prior to stimulation, all cells were rendered quiescent for 24 h in DMEM including 0.1 mg/ml of fatty acid-free bovine serum albumin (BSA). Cells were subcultured in 60 mm-diameter dishes at a density of 700 cells per dish. After 24 h, cells were treated with the indicated concentrations of the different compounds in growth medium and incubated for further 10 days to allow colony formation. Cells were then washed with PBS, air dried, and stained for 30 min with 2% (w/v) crystal violet, washed with water and air dried again. The number of colonies was quantified using a ColCount™ (Mammalian Cell Colony Counter, Oxford Optronix, Oxford, U.K.). Only colonies containing more than 50 cells were evaluated.

The subject of assay [2] is breast cancer cell lines (MCF-7, MDA-MB-231 and Sk-Br-3) and colon cancer cell lines (HCT-116 and SW620). Particulars: cited from earlier work; for growth inhibition: Nagaoka et al. 2008, in the concentration tested.
In a further assay the test system is EA.hy 926 cells. The experiment in a line: serum-stimulated migration of endothelial cells, adapted Boyden chamber assay. The class given is cell-based, human. Conditions: 10% serum, 6 h, at 3 μM and 10 μM. The method, then:
Serum-starved EA. by 926 cells in 8 μM-polycarbonate inserts were treated for 6 h with 10% serum in the absence or presence of the indicated concentrations of ST-968 or ST-1071. Migrated cells were stained with DAPI and counted in a fluorescence microscop.
EA.hy 926 cells were cultured for 24 h under serum-free conditions. Chemotaxis was measured in Cell Culture Inserts (polycarbonate-coated membranes, […] pore size). The lower compartment was filled with serum-free DMEM and 1.7×10^5 cells were seeded per insert in the absence or presence of the indicated stimuli and inhibitors. After the indicated time periods, non-migrated cells were mechanically removed from the membrane and cells that had migrated into the membrane were fixed in 4% paraformaldehyde in PBS and stained with lug/ml of 4′,6-diamidino-2-phenylindole (DAPI). DAPI-stained cells were counted using a fluorescence microscope. Each data point is the average number of cells in five random fields and is the mean of four individual wells.

The subject of assay [3] is p42/44-MAPK phosphorylation in renal mesangial cells. The experiment in a line: MAPK/ERK (p42/44) phosphorylation in renal mesangial cells, Western blot. The class given is cell-based, rat. Conditions: for agonistic potential on S1P receptors: concluded from MAPK/ERK activation and antagonist experiments; for p42/44 phosphorylation (p42/44-MAPK activity): rat renal mesangial cells, stimulation for 10 min; for effect on ST-968-induced p42/44 activation: pretreatment with pertussis toxin 100 ng/ml 16 h, or VPC23019 10 μM or W146 10 μM 30 min, then ST-968 1 μM 10 min. The method, then:
(A+B): Confluent mesangial cells were pretreated for 16 h with pertussis toxin (100 ng/ml), or for 30 min with vehicle (−), VPC23019 (10 μM) and W146 (10 μM) prior to stimulation for 10 min with either vehicle (Co) or ST-968 (1 μM). (C): Cells were stimulated for 10 min with either vehicle (Co) or the indicated concentrations (in μM) of S1P and ST-1071. Thereafter, cell lysates containing 30 μg of protein were separated by SDS-PAGE, transferred to nitrocellulose and subjected to Western blot analysis using antibodies against phospho-p42/44 (dilution of 1:1000; A, upper panel) and total p42/ERK2 and p44/ERK1 (dilution 1:6000 each; B, lower panel). Blots were stained by the ECL method according to the manufacturer's recommendation. Bands corresponding to the phospho-p42/44 and total ERKs were densitometrically scanned and evaluated (B). Results in B are depicted as % of ST-968 stimulation and are means ±S.D. (n=3).
(§1) Rat renal mesangial cells were isolated, characterized, and cultured as previously described (Pfeilschifter et al., 1984). For the experiments performed in this study, cells between passages 8-30 were used. The human endothelial cell line EA.hy 926 was cultured in RPMI medium containing 10% (v/v) fetal bovine serum, 10 mM Hepes, pH 7.4, 100 units/ml penicillin, and 100 μg/ml streptomycin. HCT-116 colon carcinoma cells were cultured in McCoy medium including 10% (v/v) fetal bovine serum, 100 units/ml penicillin, and 100 μg/ml streptomycin. Prior to stimulation, all cells were rendered quiescent for 24 h in DMEM including 0.1 mg/ml of fatty acid-free bovine serum albumin (BSA).
Confluent mesangial cells were stimulated as indicated in the figure legends in Dulbecco's modified Eagle medium (DMEM) supplemented with 0.1 mg/ml of fatty acid-free bovine serum albumin and 10 mM HEPES. After stimulation, the supernatant was taken for PGE2 or NO quantification and for detection of secreted IIA-sPLA2. The cell monolayers were homogenized in lysis buffer and processed exactly as previously described (Huwiler et al., 2006). Cell lysates were taken for protein determination. Lysates containing equal amounts of protein, were separated by sodium dodecylsulfate-polyacrylamide gel electrophoresis (SDS-PAGE), transferred to nitrocellulose membranes and subjected for Western blot analysis using antibodies as indicated in the figure legends. Bands were detected by enhanced chemiluminescence method as recommended by the manufacturer.

The test system of assay [4] is p42/44-MAPK phosphorylation in EA.hy 926 cells. The experiment in a line: MAPK/ERK phosphorylation in the endothelial cell line EA.hy 926, Western blot. The class given is cell-based, human. Particulars: 1 μM. The method, then:
Confluent EA.hy 926 cells were treated either for 10 min (left side) or for 4 h (right side) with either vehicle (Co), S1P (1 μM), or ST-968 (1 μM). Thereafter, cell lysates containing 30 μg of protein were separated by SDS-PAGE, transferred to nitrocellulose and subjected to Western blot analysis using antibodies against phospho-ERK½ (dilution of 1:1000; A, upper panel), and total p42/ERK2 and p44/ERK1(dilutions each 1:6000; B, lower panel). Blots were stained by the ECL method according to the manufacturer's recommendation. Bands corresponding to the phospho-ERKs were densitometrically evaluated and results are depicted as % of control and are means ±S.D. ([…]).
as §1
Confluent mesangial cells were stimulated as indicated in the figure legends in Dulbecco's modified Eagle medium (DMEM) supplemented with 0.1 mg/ml of fatty acid-free bovine serum albumin and 10 mM HEPES. After stimulation, the supernatant was taken for PGE2 or NO quantification and for detection of secreted IIA-sPLA2. The cell monolayers were homogenized in lysis buffer and processed exactly as previously described (Huwiler et al., 2006). Cell lysates were taken for protein determination. […] Bands were detected by enhanced chemiluminescence method as recommended by the manufacturer.

A further assay concerns MCF-7 cells. Particulars: Nagaoka et al. 2008; cited from earlier work.
For assay [5], the system named is secretory phospholipase A2 (sPLA2) expression. The experiment in a line: cytokine-triggered secretory phospholipase A2 expression in renal mesangial cells, Western blot. Particulars: IL-1β 1 nM plus forskolin 10 μM, 24 h, increasing doses of ST-968. The class given is cell-based, rat. The method, then:
Cells were treated for 24 h with either vehicle (−, 0) or with interleukin 1 β (1 nM) plus forskolin (10 μM) (IL-1/Fk, +) in the absence (0) or presence of the indicated concentrations of ST-968. Thereafter, supernatants were collected and equal volumes were taken for protein precipitation using trichloroacetic acid. Equal aliquots were separated by SDS-PAGE, transferred to nitrocellulose and subjected to Western blot analysis using a monoclonal antibody against rat sPLA2 at a dilution of 1:60. Blots were stained by the ECL method according to the manufacturer's recommendation. Data are representative of two independent experiments giving similar results.
Confluent mesangial cells were stimulated as indicated in the figure legends in Dulbecco's modified Eagle medium (DMEM) supplemented with 0.1 mg/ml of fatty acid-free bovine serum albumin and 10 mM HEPES. After stimulation, the supernatant was taken for PGE2 or NO quantification and for detection of secreted IIA-sPLA2. The cell monolayers were homogenized in lysis buffer and processed exactly as previously described (Huwiler et al., 2006). Cell lysates were taken for protein determination. […] Bands were detected by enhanced chemiluminescence method as recommended by the manufacturer. […]

The subject of assay [6] is nitric oxide (NO) formation. The experiment in a line: cytokine-triggered nitric oxide release from renal mesangial cells, Griess reagent. The class given is cell-based, rat. Conditions: IL-1β 1 nM plus forskolin 10 μM, 24 h. The method, then: Cells were treated for 24 h with either vehicle (−) or with interleukin 1 β (1 nM) plus forskolin (10 μM) (IL-1/Fk, +) in the absence or presence of the indicated concentrations of ST-968 (in μM), or betamethasone (in nM). Thereafter, supernatants were collected and nitrite was quantified by using the Griess reagent.
Quiescent mesangial cells in 24-well plates were stimulated as indicated, and the supernatants were taken for nitrite determination using Griess reagent as described (Green et al., 1982).

Take `CCCCCCCCc1ccc(CCC(N)(CO)CO)cc1.Cl` [FTY720, 2-Amino-2[2-(4-octylphenyl)ethyl]propane-1,3-diol, reference compound]: the colony formation entry in assay [1] is given as “completely abolished colony formation”. The growth inhibition entry in assay [2] is listed as “significant growth inhibition”.

As for `CCCCCCCOc1ccc(CCC23COCN2COC3)cc1` [ST-1071, 7a-(4-(Heptyloxy)Phenethyl)Tetrahydro-1H-Oxazolo[3,4-c]Oxazole], the colony formation entry is listed as “strongly reduced colony formation” in assay [1] and “inhibited and/or reduced the colony formation” in assay [1] (listed as ST 1071). In the assay with EA.hy 926 cells, the serum-stimulated migration result is listed as “able to reduce serum-stimulated migration”. The figures for the “agonistic potential on S1P receptors” value in assay [3] and in assay [3] (listed as ST1071) were “have agonistic potential on one or several of the S1P receptors” and “exhibited agonistic potential for one or several of the S1P receptor subtypes”, respectively. Also, the “p42/44 phosphorylation (p42/44-MAPK activity)” value in assay [3] is reported as “stimulated p42/44 phosphorylation after 10 min in a concentration-dependent manner”. Further, the “potency on p42/44 phosphorylation compared with S1P” value in assay [3] (renal mesangial cells, 10 min) was “less potent than S1P”.

`CCCCCCc1cccc(NC(=O)[C@H](N)CCP(=O)(O)O)c1` [W146, (R)-3-amino-(3-hexylphenylamino)-4-oxobutylphosphonic acid, reference compound]: the “effect on ST-968-induced p42/44 activation” value in assay [3] is given as “had no effect”.

Turning to `CCCCCCCCCCCCC/C=C/[C@@H](O)[C@@H](N)CO` [sphingosine], in assay [2], the growth inhibition result is on record as “significant growth inhibition”.

Take `CCCCCCCCCCCCC/C=C/[C@@H](O)[C@@H](N)COP(=O)(O)O` [S1P, sphingosine-1-phosphate]: the “p42/44 phosphorylation, S1P compared with ST-968” value in assay [4] (10 min of stimulation) is listed as “more potent to increase p42/44 phosphorylation than ST-968”. Further, the growth inhibition result in assay [2] is “did not inhibit the growth”. Besides, the “growth of MCF-7 cells” value with MCF-7 cells is given as “slightly induced the growth”.

Turning to `CCCCCCCCc1ccc(CCC23COCN2COC3)cc1` [ST-968, 7a-(4-Octylphenethyl)Tetrahydro-1H-Oxazolo[3,4-c]Oxazole], the sPLA2 expression result in assay [5] is listed as “reduced”. The “activation of the p42/44-MAPK cascade” value in assay [4] is given as “could activate the p42/44-MAPK cascade”. In assay [4] (4 h of stimulation), the “p42/44 phosphorylation, ST-968 compared with S1P” value is listed as “more potently increasing p42/44 phosphorylation than S1P”. In addition, the colony formation entry in assay [1] is listed as “strongly reduced colony formation”; in assay [1] (listed as ST 968), “inhibited and/or reduced the colony formation”. In addition, in the assay on EA.hy 926 cells, the serum-stimulated migration result was “able to reduce serum-stimulated migration”. Also, in assay [6], the “IL-1β/forskolin induced NO formation” value is listed as “dose-dependently reduced”. In addition, the “agonistic potential on S1P receptors” value in assay [3] is on record as “have agonistic potential on one or several of the S1P receptors”; in assay [3] (listed as ST 968), “exhibited agonistic potential for one or several of the S1P receptor subtypes”. Moreover, in assay [3], the “p42/44 phosphorylation (p42/44-MAPK activity)” value is given as “increased p42/44 phosphorylation”.

In the case of `CCCCCCC(=O)CCCCCC/C=C/C[C@@H](O)[C@H](O)[C@@](N)(CO)C(=O)O` [myriocin, reference compound], the colony formation result in assay [1] is reported as “had no effect”.

With pertussis toxin [reference compound], in assay [3], the “effect on ST-968-induced p42/44 activation” value is listed as “only partially blocked”.

In the case of `CCCCCCCCc1cccc(NC(=O)[C@H](N)COP(=O)(O)O)c1` [VPC23019, reference compound], the “effect on ST-968-induced p42/44 activation” value in assay [3] is “completely abolished”.

For `CCCCCCCCc1ccc(CC[C@](N)(CO)COP(=O)(O)O)cc1` [FTY720-P, FTY720-1-phosphate], the growth inhibition entry in assay [2] is on record as “did not inhibit the growth”. In addition, the “growth of MCF-7 cells” value in the assay with MCF-7 cells is given as “slightly induced the growth”.

`CCCCCCCCCCCCC/C=C/[C@@H](O)[C@H](CO)N(C)C` [dimethylsphingosine]: in assay [2] (combined with FTY720, Nagaoka et al. 2008), the “effect of the combination on the inhibitory effect of FTY720” value is recorded as “augmented the inhibitory effect of FTY720”.
